Key:
[1] = target: T1, human platelet system (thromboxane receptor sites) (Homo sapiens, UniProt P21731); assay: Human platelet system: antagonism of 11,9-(epoxymethano) PGH2-induced aggregation of washed platelets (Gaddum-Schild KB); format: cell-based; conditions: agonist 11,9-(epoxymethano) PGH2, compound added 5 minutes before agonist, read-out: affinity constant KB (converted)
T1 construct: Washed platelets are prepared by centrifugation; endogenous in cells; host or cells: washed human platelets
T1 sequence (P21731 1-343): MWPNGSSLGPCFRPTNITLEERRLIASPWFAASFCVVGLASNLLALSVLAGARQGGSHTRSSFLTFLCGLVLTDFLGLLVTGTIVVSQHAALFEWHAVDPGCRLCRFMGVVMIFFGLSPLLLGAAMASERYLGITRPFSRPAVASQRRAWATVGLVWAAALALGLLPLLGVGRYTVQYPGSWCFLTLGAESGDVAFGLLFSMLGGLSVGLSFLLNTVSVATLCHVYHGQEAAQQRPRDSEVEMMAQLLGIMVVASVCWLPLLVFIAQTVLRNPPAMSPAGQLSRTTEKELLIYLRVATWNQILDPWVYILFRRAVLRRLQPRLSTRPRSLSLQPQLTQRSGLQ
Method: Washed platelets are prepared by centrifugation of plateletrich human plasma at 600×g for 20 minutes. The platelet pellet is resuspended in Ca^++ -free Kreb's solution.
Addition of the agonist 11.9-(epoxymethano) PGH2 (1×10^-7 to 5×10^-7 M) causes immediate aggregation recorded as an increase in light transmission (600 nm). In a second experiment the compound under test is added 5 minutes previous to the addition of the PGH2 analogue. The dose of the PGH2 analogue added is then increased to a level which gives a similar response to that obtained in the absence of antagonist.
(§1) In the case of each system, the affinity constant, KB, for the compound under test is calculated according to the Gaddum-Schild equation (based on Law of Mass Action). [formula]

rabbit aorta = target: T2, rabbit aorta (Oryctolagus cuniculus, UniProt Q6WQI8); assay: Rabbit aorta system: antagonism of 11,9-(epoxymethano) PGH2 tension response in thoracic aorta strips (Gaddum-Schild KB); format: cell-based; conditions: agonist 11,9-(epoxymethano) PGH2; compound added 30 minutes before agonist; head KB × 10^-6
T2 construct: functional antagonism of U46619 contraction
T2 sequence (Q6WQI8 1-233): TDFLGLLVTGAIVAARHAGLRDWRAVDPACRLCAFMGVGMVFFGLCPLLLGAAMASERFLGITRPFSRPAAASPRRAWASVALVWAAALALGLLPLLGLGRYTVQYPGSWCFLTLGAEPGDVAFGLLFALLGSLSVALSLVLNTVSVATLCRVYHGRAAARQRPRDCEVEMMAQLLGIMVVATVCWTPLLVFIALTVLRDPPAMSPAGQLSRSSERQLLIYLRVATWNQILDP
Method: Spiral strips of thoracic aorta are suspended in Kreb's Henseleit solution and aerated with 95% O2 /5% CO2 at 37° C. Tension changes are recorded with a Grass FT03 force transducer. Initially, cumulative dose response curves to 11,9-(epoxymethanol) PGH2 (2×10^-9,1×10^-8, […] and 2.5×10^-7 M) are obtained. In a second experiment the individual compounds are added 30 minutes previous to the addition of the series of agonist doses.
as §1

[2] = tested on: guinea pig bronchoconstriction; assay: Modified Konzett-Rossler test: inhibition of PGH2 analogue-induced bronchoconstriction in anaesthetised guinea pig; format: in vivo
Method: A male albino guinea pig is anaethetised with a mixture of allyl barbituric acid and ethyl carbamate and the guinea pig is given intravenously a dose of 0.35 μg/kg of 11,9-(epoxymethane) PGH2. After a further period of 10 minutes, the guinea pig is treated intravenously with a dose of 0.3 mg/kg of trans-5-(6'-carboxy-5'-oxahexyl)-6-(1'-[N-phenylthiocarbamoyl-hydrazono]-ethyl-bicyclo [2,2,2] octane.
The guinea pig is then used in a modified Konzett-Rossler test which gives a measure of the inhibition produced by the test compound of the bronchoconstiction resulting from administration of the PGH2 derivative. This test involves artificially respiring the animals and measuring the amount of residual air with a pressure transducer.

guinea pig trachea = target: T3, guinea pig trachea (Cavia porcellus, UniProt A0A286Y4I8); assay: Guinea pig trachea system: antagonism of 11,9-(epoxymethano) PGH2 tension response in trachea strips (Gaddum-Schild KB); format: cell-based; conditions: agonist 11,9-(epoxymethano) PGH2; compound added 50 minutes before agonist; head KB × 10^-6
T3 construct: from tissue; host or cells: guinea pig trachea, spiral strips
T3 sequence (A0A286Y4I8 1-347): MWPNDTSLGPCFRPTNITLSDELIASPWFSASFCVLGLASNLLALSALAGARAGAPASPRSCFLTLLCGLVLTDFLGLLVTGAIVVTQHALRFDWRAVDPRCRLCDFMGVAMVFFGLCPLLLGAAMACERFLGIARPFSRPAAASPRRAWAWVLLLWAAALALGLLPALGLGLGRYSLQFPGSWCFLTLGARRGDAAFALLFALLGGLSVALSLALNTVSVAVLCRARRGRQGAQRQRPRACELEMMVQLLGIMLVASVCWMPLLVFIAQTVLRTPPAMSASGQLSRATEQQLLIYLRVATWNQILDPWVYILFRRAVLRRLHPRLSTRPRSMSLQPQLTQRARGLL
Method: Spiral strips of trachea are suspended in Kreb's-Henseleit solution, additionally containing atropine sulphate (2×10^-8 M) and indomethacin (10^-6 M), aerated with 95% O2 /5% CO2 and maintained at 37° C. Tension changes are recorded with a Grass FT03 force transducer. Initially, cumulative dose response curves to the agonist 11,9-(epoxymethano) PGH2 are obtained (typically at the same concentrations as for the rabbit aorta system). In a second experiment, the compound under test is added 50 minutes previous to the addition of the series of agonist doses.
as §1

human platelet system = assay: Prostacyclin-like activity in human platelet system (antagonism of ADP); format: cell-based

For `CC(=NNC(=S)Nc1ccccc1)[C@@H]1C2CCC(CC2)[C@H]1CCCCOCC(=O)O` (relative stereo) [Example 4, trans-5-(6'-Carboxy-5'-oxahexyl)-6-(1'-[N-(phenylthiocarbamoyl)-hydrazono]-ethyl)-bicyclo [2,2,2] octane], the Kb [1] was 4.76 nM, the Kb (rabbit aorta) was 167 nM and the “inhibition of bronchoconstriction resulting from the PGH2 analogue” value ([2]; 0.3 mg/kg intravenous, 11,9-(epoxymethano) PGH2 0.35 μg/kg i.v.) was “markedly blocked the action of the PGH2 analogue”. For the same compound, the “bronchoconstriction caused by compound itself” value ([2]; 0.3 mg/kg, control without prior administration of PGH2 analogue) was “did not itself lead to any observable bronchoconstriction”.

Compound `CC(=NNC(=S)Nc1ccccc1)[C@@H]1C2CCC(CC2)[C@H]1CCCCCOCC(=O)O` (relative stereo) [Example 8, trans-5-(7'-Carboxy-6'-oxaheptyl)-6-(1'-[N-(phenylthiocarbamoyl)-hydrazano]-ethyl)-bicyclo [2,2,2] octane] has a Kb (rabbit aorta) of 192 nM and a Kb (guinea pig trachea) of 3.7 nM.

`CC(=NOC(c1ccccc1)c1ccccc1)[C@@H]1C2CCC(CC2)[C@H]1CCCCOCC(=O)O` (relative stereo) [Example 3, trans-5-(6'-Carboxy-5'-oxahexyl)-6-[1'-(O-diphenylmethoxyimino)ethyl]-bicyclo [2,2,2] octane] was tested, and the “prostacyclin-like activity as evidenced by antagonism of ADP” value (human platelet system) was “very little prostacyclin-like activity”.

With `CCCCCCNC(=S)NN=C(C)[C@@H]1C2CCC(CC2)[C@H]1CCCCOCC(=O)O` (relative stereo) [Example 6, trans-5-(6'-Carboxy-5'-oxahexyl)-6'-(1'-[N-(hexylthiocarbamoyl)-hydrazono]-ethyl)-bicyclo [2,2,2] octane] the Kb (guinea pig trachea) was 14.3 nM.

With `CC(=NNC(=S)Nc1ccccc1)[C@@H]1[C@H]2CC[C@H](C2)[C@H]1C/C=C\CCCC(=O)O` (relative stereo) [5-endo-(6'-carboxyhex-2'-Z-enyl)-6-exo-(1'-[N-(phenylthiocarbamoyl)-hydrazono]-ethyl-bicyclo [2,2,1]heptane, reference compound] the Kb [1] was 14.3 nM.

Work on `COc1ccc(NC(=O)NN=C(C)[C@@H]2C3CCC(CC3)[C@H]2CCCCOCC(=O)O)cc1` (relative stereo) [Example 5, trans-5-(6'-Carboxy-5'-oxahexyl)-6-(7'-[N-(p-methoxyphenyl-carbamoyl)-hydrazono]-ethyl)-bicyclo [2,2,2] octane] yielded a Kb (guinea pig trachea) of about 0.25 nM.

For `O=C(O)COCCOC[C@@H]1[C@@H]2CC[C@@H](C2)[C@H]1C=NOC(c1ccccc1)c1ccccc1` (relative stereo) [Example 10], the Kb (rabbit aorta) was 294 nM and the Kb (guinea pig trachea) was 17.9 nM.

From patent publication US5077309A, “Prostaglandins” (National Research Development Corporation, priority 1986, dated 1991)
